What all share (assay): Cell survival rate, cell experiment in vitro (MTT)
Data set [1] deals with paclitaxel-resistant human pancreatic cancer cell line (BxPC-3/T). The class given is cell-based. As for the experimental part: The new recovery BxPC-3 cells were cultured for two generations or three generations under conventional conditions to make the cells grow stably.
For data set [2], the system named is human ovarian cancer cell line (A2780).
The test system of data set [3] is paclitaxel-resistant human ovarian cancer cell line (A2780/T).

Structures are written as SMILES.

As for `CC(=O)O[C@H]1C(=O)[C@@]2(C)[C@H]([C@H](OC(=O)c3ccccc3)[C@]3(O)C[C@H](OC(=O)[C@H](O)[C@@H](NC(=O)c4ccccc4)c4ccccc4)C(C)=C1C3(C)C)[C@]1(OC(C)=O)CO[C@@H]1C[C@@H]2O` [Taxol, paclitaxel], the “Cell Viability” value in data set [1] (C (μM): Taxol + Rg5 1.5625 + 9.375, Taxol 1.5625, Blank Rg5 9.375) is on record as 0.85; in data set [1] (C (μM): Taxol + Rg5 12.5 + 75, Taxol 12.5, Blank Rg5 75), 0.639; in data set [1] (C (μM): Taxol + Rg5 25 + 150, Taxol 25, Blank Rg5 150), 0.454; in data set [1] (C (μM): Taxol + Rg5 50 + 300, Taxol 50, Blank Rg5 300), 0.272; in data set [1] (C (μM): Taxol + Rg5 200 + 1200, Taxol 200, Blank Rg5 1200), 0.15; in data set [1] (C (μM): Taxol + Rg5 400 + 2400, Taxol 400, Blank Rg5 2400) it was 0.134. Moreover, the “Cell Viability” value was found to be 0.866 in data set [2] (C (μM): Taxol + Rg5 0.001953 + 0.011719, Taxol 0.001953, Blank Rg5 0.011719, Abraxane 0.001953); 0.818 in data set [2] (C (μM): Taxol + Rg5 0.007813 + 0.046875, Taxol 0.007813, Blank Rg5 0.046875, Abraxane 0.007813); 0.673 in data set [2] (C (μM): Taxol + Rg5 0.015625 + 0.09375, Taxol 0.015625, Blank Rg5 0.09375, Abraxane 0.015625); 0.443 in data set [2] (C (μM): Taxol + Rg5 0.03125 + 0.1875, Taxol 0.03125, Blank Rg5 0.1875, Abraxane 0.03125); 0.204 in data set [2] (C (μM): Taxol + Rg5 0.25 + 1.5, Taxol 0.25, Blank Rg5 1.5, Abraxane 0.25); 0.185 in data set [2] (C (μM): Taxol + Rg5 0.5 + 3, Taxol 0.5, Blank Rg5 3, Abraxane 0.5). Moreover, the “Cell Viability” value stood at 0.133 in data set [2] (C (μM): Taxol + Rg5 1 + 6, Taxol 1, Blank Rg5 6, Abraxane 1); 0.856 in data set [3] (C (μM): Taxol + Rg5 1.5625 + 9.375, Taxol 1.5625, Blank Rg5 9.375, Abraxane 1.5625); 0.654 in data set [3] (C (μM): Taxol + Rg5 6.25 + 37.5, Taxol 6.25, Blank Rg5 37.5, Abraxane 6.25); 0.393 in data set [3] (C (μM): Taxol + Rg5 12.5 + 75, Taxol 12.5, Blank Rg5 75, Abraxane 12.5); 0.139 in data set [3] (C (μM): Taxol + Rg5 400 + 2400, Taxol 400, Blank Rg5 2400, Abraxane 400).

Source of the values: patent US10639276B2, “Liposomes with ginsenoside as membrane material and preparations and use thereof” (SHANGHAI GINPOSOME PHARMATECH CO., LTD., priority 2015, dated 2020).
